Some test systems named below: 786-0 renal; HOP-92 NSCLC; HS 578T breast; MALME-3M melanoma; OVCAR-5 ovarian; SF-295 CNS; SK-OV-3 ovarian; SN12C renal; SNB-75 CNS; U251 CNS.
Assay in all cases: NCI tumour cell line growth inhibition, 48 h

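Growth conditions: 96-well plates. Treatment: test compound, 48 hours, 5 concentrations. Analysis: linear interpolation between bracketing concentrations; unreached endpoints set to highest concentration. GI50 is the concentration that inhibits growth by half. Definition used: TGI = concentration required for complete inhibition of growth.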

`O=C(CC(C(=O)O)N1CCOCC1)c1ccccc1` (stereo not given): the TGI in the assay on 786-0 renal was 30.1 µM; in the assay with HOP-92 NSCLC, 38 µM; in the assay on HS 578T breast it was 88.9 µM; in the assay with MALME-3M melanoma, 34 µM; in the assay on OVCAR-5 ovarian it was 47.3 µM; with SF-295 CNS, over 100 µM. For the same compound, the TGI with SK-OV-3 ovarian is over 100 µM; with SN12C renal, 35.7 µM; in the assay with SNB-75 CNS, 83.4 µM; in the assay on U251 CNS, 30.9 µM.

As to `CC1SC2(CCCCC2)N(NC(=O)c2[nH]c3ccc(F)cc3c2-c2ccccc2)C1=O` (stereo not given), the GI50 was 28.4 µM with 786-0 renal; 16.9 µM with HOP-92 NSCLC; 66.8 µM in the assay with HS 578T breast; 26.1 µM in the assay with MALME-3M melanoma; over 100 µM in the assay with OVCAR-5 ovarian; 35.8 µM with SF-295 CNS. For the same compound, the GI50 was over 100 µM with SK-OV-3 ovarian, 37.1 µM in the assay with SN12C renal, 27.2 µM in the assay with SNB-75 CNS and 48.5 µM in the assay on U251 CNS. Moreover, the TGI in the assay on 786-0 renal is 89.2 µM; in the assay with HOP-92 NSCLC, 59.9 µM; in the assay on HS 578T breast, over 100 µM; in the assay on MALME-3M melanoma it was over 100 µM; with OVCAR-5 ovarian, over 100 µM; with SF-295 CNS, over 100 µM. The TGI in the assay on SK-OV-3 ovarian was over 100 µM; with SN12C renal, over 100 µM; in the assay on SNB-75 CNS, 62 µM; in the assay on U251 CNS, over 100 µM.

`CCCCCCCCCCCCCCCCCC1=NC(C)(C)CN1CCO`: the GI50 with 786-0 renal is 1.73 µM; with HOP-92 NSCLC it was 1.4 µM; in the assay with HS 578T breast it was 1.66 µM; in the assay on MALME-3M melanoma it was 2.18 µM; in the assay with OVCAR-5 ovarian, 1.78 µM; in the assay with SF-295 CNS it was 1.79 µM. Besides, the GI50 is 1.72 µM with SK-OV-3 ovarian, 1.61 µM in the assay with SN12C renal, 1.81 µM with SNB-75 CNS and 1.65 µM with U251 CNS. In addition, the TGI is 3.2 µM with 786-0 renal; 7.84 µM in the assay on HOP-92 NSCLC; 3.93 µM in the assay with HS 578T breast; 5.6 µM in the assay on MALME-3M melanoma; 3.6 µM in the assay with OVCAR-5 ovarian; 3.68 µM with SF-295 CNS. In addition, the TGI with SK-OV-3 ovarian was 3.16 µM; in the assay with SN12C renal, 3.61 µM; in the assay on SNB-75 CNS it was 4.01 µM; with U251 CNS, 3.01 µM.

For `C=CC[PH+](c1ccccc1)c1ccccc1.C=CC[PH+](c1ccccc1)c1ccccc1.[Cl][Pt][Cl]`, the GI50 was 12.6 µM in the assay with 786-0 renal; 3.27 µM with HOP-92 NSCLC; 13.4 µM with HS 578T breast; 2.22 µM with MALME-3M melanoma; 13.9 µM in the assay with OVCAR-5 ovarian; 37.9 µM in the assay on SF-295 CNS. In addition, the GI50 with SK-OV-3 ovarian is 24 µM; with SN12C renal, 3.35 µM; with SNB-75 CNS it was 11 µM; with U251 CNS, 7.45 µM. In addition, the TGI in the assay on 786-0 renal is 25.5 µM; with HOP-92 NSCLC, 12.4 µM; in the assay with HS 578T breast, 48.6 µM; with MALME-3M melanoma, 5.8 µM; with OVCAR-5 ovarian, 30.4 µM; in the assay with SF-295 CNS it was over 100 µM. In addition, the TGI was 65.7 µM in the assay with SK-OV-3 ovarian, 13.9 µM in the assay on SN12C renal, 25.1 µM in the assay on SNB-75 CNS and 22.3 µM in the assay with U251 CNS.

In the case of `N#CC1(C#N)C2C=CC(C3CCC=C32)C1(C#N)C#N` (stereo not given), the TGI was over 9.04 µM in the assay with 786-0 renal; over 10 µM with HOP-92 NSCLC; over 10 µM in the assay with HS 578T breast; 5.5 µM in the assay on MALME-3M melanoma; over 10 µM in the assay with OVCAR-5 ovarian; over 10 µM with SF-295 CNS. Moreover, the TGI in the assay with SK-OV-3 ovarian, in the assay with SN12C renal, with SNB-75 CNS and with U251 CNS was over 10 µM in each case.

On to `COc1ccc(S(=O)(=O)NCCNc2nccc(-c3c(-c4ccccc4)nc4sccn34)n2)cc1`, for which the GI50 in the assay on 786-0 renal is 3.42 µM; in the assay on HOP-92 NSCLC, 3.73 µM; in the assay on HS 578T breast, 2.18 µM; with MALME-3M melanoma, 8.77 µM; in the assay with OVCAR-5 ovarian, over 100 µM; in the assay on SF-295 CNS, 6.52 µM. Also, the GI50 was 4.18 µM with SK-OV-3 ovarian, 1.93 µM in the assay with SN12C renal, 1.82 µM in the assay on SNB-75 CNS and 5.17 µM in the assay with U251 CNS. Moreover, the TGI in the assay with 786-0 renal is over 100 µM; with HOP-92 NSCLC, 65.7 µM; in the assay with HS 578T breast it was 47.4 µM; in the assay on MALME-3M melanoma, over 100 µM; in the assay on OVCAR-5 ovarian, over 100 µM; in the assay on SF-295 CNS it was over 100 µM. The TGI was over 100 µM in the assay on SK-OV-3 ovarian, over 100 µM with SN12C renal, 9.54 µM with SNB-75 CNS and over 100 µM with U251 CNS.

In the case of `CCSc1nc(N)c2cnn(C)c2n1`, the GI50 in the assay on 786-0 renal was 80 µM; in the assay on HOP-92 NSCLC, 77.4 µM; with HS 578T breast, 30.7 µM; with MALME-3M melanoma, 33.6 µM; in the assay on OVCAR-5 ovarian, 49.9 µM; with SF-295 CNS it was 51.7 µM. The GI50 with SK-OV-3 ovarian is 54.8 µM; with SN12C renal, 48.9 µM; in the assay with SNB-75 CNS, 68.9 µM; in the assay on U251 CNS, 40.6 µM. Further, the TGI with 786-0 renal was over 100 µM; in the assay on HOP-92 NSCLC, over 100 µM; with HS 578T breast, 74 µM; in the assay with MALME-3M melanoma it was over 100 µM; in the assay on OVCAR-5 ovarian it was over 100 µM; with SF-295 CNS, over 100 µM. Moreover, the TGI in the assay with SK-OV-3 ovarian, with SN12C renal, in the assay with SNB-75 CNS and in the assay with U251 CNS was over 100 µM each time.

On to `CCOC(=O)C1=C(c2ccccc2)N(Cc2ccccc2)C2(O)C=CC(=O)C3C(=O)N(c4ccccc4)C(=O)C132` (stereo not given), for which the GI50 in the assay on 786-0 renal was 2.11 µM; in the assay on HOP-92 NSCLC, 2.03 µM; in the assay with HS 578T breast, 3.46 µM; with MALME-3M melanoma it was 1.79 µM; in the assay with OVCAR-5 ovarian, 3.23 µM; with SF-295 CNS, 2.9 µM. In addition, the GI50 in the assay with SK-OV-3 ovarian is 3.29 µM; in the assay with SN12C renal, 1.55 µM; in the assay on SNB-75 CNS it was 2.1 µM; in the assay with U251 CNS, 1.51 µM. The TGI turned out to be 5.34 µM in the assay with 786-0 renal; 5.54 µM in the assay with HOP-92 NSCLC; 18.3 µM with HS 578T breast; 3.34 µM in the assay on MALME-3M melanoma; 15.5 µM in the assay on OVCAR-5 ovarian; 11.5 µM with SF-295 CNS. The TGI amounted to 10.7 µM with SK-OV-3 ovarian, 4.9 µM in the assay with SN12C renal, 4.62 µM in the assay on SNB-75 CNS and 2.93 µM with U251 CNS.

The record behind these values is PubChem BioAssay (NCI).
